Assay results from the supplement of paper PMC13380429.

Columns and labels:
Details in all cases: 72 h
Vero E6 [1] = assay: cell viability relative to DMSO; higher = less toxic
Calu-3 [2] = assay: as above
Caco-2 [3] = assay: as above
U2OS [4] = assay: as above
Vero E6 [5] = assay: relative viability EC50 (midpoint between 100% and the lowest measured viability); higher = less toxic
Calu-3 [6] = assay: as above
Caco-2 [7] = assay: as above
Vero E6 [8] = assay: drug sensitivity score (DSS) for viability; higher = more toxic; extreme values may be limits of the assay
Calu-3 [9] = assay: as above
Caco-2 [10] = assay: as above
U2OS [11] = assay: as above
HepG2 [12] = assay: cell viability relative to DMSO; higher = less toxic
U2OS [13] = assay: relative viability EC50 (midpoint between 100% and the lowest measured viability); higher = less toxic
HepG2 [14] = assay: drug sensitivity score (DSS) for viability; higher = more toxic; extreme values may be limits of the assay

Row | SMILES | cell viability (Vero E6 [1]; 1 nM) [%] | cell viability (Vero E6 [1]; 10 nM) [%] | cell viability (Vero E6 [1]; 100 nM) [%] | cell viability (Vero E6 [1]; 1000 nM) [%] | cell viability (Vero E6 [1]; 10000 nM) [%] | cell viability (Calu-3 [2]; 1 nM) [%] | cell viability (Calu-3 [2]; 10 nM) [%] | cell viability (Calu-3 [2]; 100 nM) [%] | cell viability (Calu-3 [2]; 1000 nM) [%] | cell viability (Calu-3 [2]; 10000 nM) [%] | cell viability (Caco-2 [3]; 1 nM) [%] | cell viability (Caco-2 [3]; 10 nM) [%] | cell viability (Caco-2 [3]; 100 nM) [%] | cell viability (Caco-2 [3]; 1000 nM) [%] | cell viability (Caco-2 [3]; 10000 nM) [%] | cell viability (U2OS [4]; 1 nM) [%] | cell viability (U2OS [4]; 10 nM) [%] | cell viability (U2OS [4]; 100 nM) [%] | cell viability (U2OS [4]; 1000 nM) [%] | cell viability (U2OS [4]; 10000 nM) [%] | relative viability EC50 (Vero E6 [5]) [µM] | relative viability EC50 (Calu-3 [6]) [µM] | relative viability EC50 (Caco-2 [7]) [µM] | drug sensitivity score (Vero E6 [8]) | drug sensitivity score (Calu-3 [9]) | drug sensitivity score (Caco-2 [10]) | drug sensitivity score (U2OS [11]) | cell viability (HepG2 [12]; 1 nM) [%] | cell viability (HepG2 [12]; 10 nM) [%] | cell viability (HepG2 [12]; 100 nM) [%] | cell viability (HepG2 [12]; 1000 nM) [%] | cell viability (HepG2 [12]; 10000 nM) [%] | relative viability EC50 (U2OS [13]) [µM] | drug sensitivity score (HepG2 [14])
1 | Cc1cc2c(F)c(Oc3ncnn4cc(OC[C@@H](C)OC(=O)[C@H](C)N)c(C)c34)ccc2[nH]1 [brivanib-alaninate] | 93.1 | 96 | 96.5 | 90.9 | 88.2 | 90.8 | 103 | 95.3 | 102 | 86.5 | 91.8 | 98.5 | 88.2 | 101 | 86.3 | 94.2 | 101 | 92.5 | 101 | 73.1 | > 10 | > 10 | > 10 | 0 | 0.1 | 0.1 | 1 | – | – | – | – | – | – | –
2 | O=C(/C=C/c1cccnc1)c1ccncc1 [3PO] | 107 | 112 | 100 | 111 | 87.7 | – | – | – | – | – | 103 | 97.1 | 99.7 | 92.3 | 77.3 | 101 | 99.7 | 100 | 99 | 82.5 | > 10 | – | > 10 | 0 | – | 1.8 | 0.5 | 103 | 102 | 93.2 | 112 | 72.7 | > 10 | 0.7
3 | COc1ccc(/C=C/C(=O)Nc2ccccc2C(=O)O)cc1OC [tranilast] | – | – | – | – | – | 91.9 | 107 | 88.3 | 95.9 | 93.1 | 96.9 | 97 | 95.3 | 103 | 93.3 | 97.2 | 97.3 | 93.2 | 99.8 | 96 | – | > 10 | > 10 | – | 0 | 0 | 0 | – | – | – | – | – | > 10 | –
4 | O=C(C1CC1)N1CC[C@@H](Cc2n[nH]c(=O)n2-c2ccc(-c3ccc4occc4c3)cc2)C1 | 97.4 | 101 | 98.8 | 100 | 98.9 | – | – | – | – | – | 104 | 97.8 | 91.9 | 89.5 | 76.3 | 102 | 96.2 | 101 | 97.3 | 99.7 | > 10 | – | > 10 | 0 | – | 1.7 | 0 | 109 | 106 | 93.2 | 80.2 | 71.2 | > 10 | 3.6
5 | OC[C@H]1O[C@@H](Oc2cc3c(O)cc(O)cc3[o+]c2-c2ccc(O)c(O)c2)[C@H](O)[C@@H](O)[C@@H]1O [kuromanin] | 103 | 102 | 103 | 98 | 94.4 | 98.7 | 111 | 89.7 | 102 | 98.8 | 98.3 | 95.4 | 86.5 | 100 | 96.7 | 96.6 | 99.8 | 96.6 | 99.5 | 93.6 | > 10 | > 10 | > 10 | 0 | 0 | 0 | 0 | – | – | – | – | – | > 10 | –
6 | O=c1[nH]c([C@@H]2CCCN2)nc2c1oc1ccc(Cl)cc12 | 103 | 99.7 | 104 | 90.9 | 71.8 | – | – | – | – | – | 96.9 | 87 | 87.5 | 93.5 | 83.1 | 95 | 100 | 93.4 | 96.7 | 90.9 | – | – | > 10 | 2.4 | – | 1.2 | 0 | 97 | 98.2 | 104 | 83.5 | 60.3 | > 10 | 4.2
7 | O=C(/C=C/c1ccc(O)c(O)c1)c1ccc(O)cc1O [butein] | 103 | 101 | 102 | 99.6 | 101 | 100 | 103 | 97.2 | 112 | 92.7 | 95.5 | 103 | 101 | 92 | 61.9 | 93.8 | 101 | 94.9 | 96.9 | 75.9 | > 10 | > 10 | – | 0 | 0 | 3.2 | 1.4 | 99.3 | 103 | 104 | 93.4 | 58.4 | > 10 | 3.2
